Experiments:
IMP-1 = IMP-1 (Serratia marcescens, UniProt P52699); test: biochemical; assay type: biochemical; conditions: CCF2-FA substrate, 2 hours at 25° C; read-out: IMP-1 IC50
How it was run: (§1)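 Fluorescence assay, CCF2-FA substrate (cephalosporin core linking 7-hydroxycoumarin to fluorescein); inhibitor + MBL + substrate, 2 h, 25° C. IC50 by 4-parameter fit, semi-log plot.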

NDM-1 = NDM-1 (Klebsiella pneumoniae, UniProt C7C422); test: biochemical; assay type: biochemical; conditions: CCF2-FA substrate, 2 hours at 25° C; read-out: NDM-1 IC50
NDM-1, sequence (C7C422 whole entry, looked up, species assumed): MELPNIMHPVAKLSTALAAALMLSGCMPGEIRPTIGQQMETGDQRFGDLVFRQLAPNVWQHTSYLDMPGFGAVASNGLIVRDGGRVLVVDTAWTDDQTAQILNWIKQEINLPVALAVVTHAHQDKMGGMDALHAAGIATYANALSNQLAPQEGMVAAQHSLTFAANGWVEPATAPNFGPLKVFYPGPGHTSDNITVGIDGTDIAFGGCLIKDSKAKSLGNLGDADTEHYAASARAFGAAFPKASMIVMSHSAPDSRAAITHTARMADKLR
How it was run: as §1

[1] = tested on: P. aeruginosa expressing IMP-1, efflux+ (MB9798); assay type: cell-based, Pseudomonas aeruginosa; conditions: for P. aeruginosa expressing IMP-1, efflux+ (MB9798) MITC95: imipenem at 2 μg/mL, in the presence of a class A, C, D serine β-lactamase inhibitor closely related to relebactam; for Efflux ratio: ratio MITC95 PA_9798/MITC95 PA_9799
Excerpt: (§2) The strain background is Pseudomonas aeruginosa PAO1.

VIM-1 = VIM-1 (Pseudomonas aeruginosa (strain ATCC 15692 / DSM 22644 / CIP 104116 / JCM 14847 / LMG 12228 / 1C / PRS 101 / PAO1), UniProt A0A0F7KYQ8); test: biochemical; conditions: CCF2-FA substrate, 2 hours at 25° C
How it was run: as §1

[2] = tested on: P. aeruginosa expressing IMP-1, efflux− (MB9799); test: Efflux: concentration of MBL inhibitor which restores susceptibility to imipenem; assay type: cell-based, Pseudomonas aeruginosa; conditions: imipenem at 2 μg/mL, in the presence of a class A, C, D serine β-lactamase inhibitor closely related to relebactam
Excerpt: as §2

[3] = tested on: Klebsiella pneumoniae expressing VIM-1 (IHMA599644); assay type: cell-based; conditions: with imipenem 1 μg/ml; 95% inhibition of bacterial growth
How it was run: (§3)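 Colonies from overnight 35 °C blood-agar cultures were suspended in saline, diluted 1:100 into 1.1× CAMHB and exposed to test compound with or without imipenem at 1 μg/ml. After 22–24 h at 35 °C, absorbance was read to find the concentration restoring imipenem susceptibility.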

[4] = tested on: Serratia marcescens expressing IMP-1 (CL5741); assay type: cell-based; conditions: with imipenem 1 μg/ml; 95% inhibition of bacterial growth
How it was run: as §3

[5] = tested on: Escherichia coli expressing NDM-1 (CLB30005, CLB30016); assay type: cell-based; conditions: with imipenem 1 μg/ml; 95% inhibition of bacterial growth
How it was run: as §3

IMP-1, sequence (P52699 whole entry, looked up, species assumed): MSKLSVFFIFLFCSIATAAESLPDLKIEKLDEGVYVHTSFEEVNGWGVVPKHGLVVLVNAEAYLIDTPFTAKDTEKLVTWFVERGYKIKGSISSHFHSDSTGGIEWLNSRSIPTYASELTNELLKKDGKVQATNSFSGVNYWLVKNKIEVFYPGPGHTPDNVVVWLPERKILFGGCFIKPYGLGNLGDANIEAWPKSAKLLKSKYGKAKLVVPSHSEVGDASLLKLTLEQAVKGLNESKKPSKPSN

## NCCS(=O)(=O)c1ccc(-c2ccc3c(c2)C(=O)NC3)c(-c2nnn[nH]2)c1S(N)(=O)=O.O=C(O)C(F)(F)F [Example 140, 2-((4-(3-oxoisoindolin-5-yl)-2-sulfamoyl-3-(1H-tetrazol-5-yl)phenyl)sulfonyl)ethanaminium 2,2,2-trifluoroacetate]
IMP-1
  IC50: 0.488 nM
NDM-1
  IC50: 0.844 nM
[1]
  P. aeruginosa expressing IMP-1, efflux+ (MB9798) MITC95: 3.125 µM
  Efflux ratio: 4.00
VIM-1
  IC50: 0.223 nM
[2]
  P. aeruginosa expressing IMP-1, efflux− (MB9799) MITC95: 0.7813 µM
[3]
  Klebsiella pneumoniae expressing VIM-1 (IHMA599644) MITC95: 1.563 µM
[4]
  Serratia marcescens expressing IMP-1 (CL5741) MITC95: 1.563 µM
[5]
  Escherichia coli expressing NDM-1 (CLB30016) MITC95: 1.563 µM

## NCCS(=O)(=O)c1ccc(-c2ccnc(N)c2)c(-c2nnn[nH]2)c1S(N)(=O)=O.O=C(O)C(F)(F)F [Example 141, 2-((4-(2-aminopyridin-4-yl)-2-sulfamoyl-3-(1H-tetrazol-5-yl)phenyl)sulfonyl)ethanaminium 2,2,2-trifluoroacetate]
IMP-1
  IC50: 4.89 nM
NDM-1
  IC50: 4.32 nM
[1]
  P. aeruginosa expressing IMP-1, efflux+ (MB9798) MITC95: 6.25 µM
  Efflux ratio: 7.02
VIM-1
  IC50: 1.01 nM
[2]
  P. aeruginosa expressing IMP-1, efflux− (MB9799) MITC95: 0.8906 µM
[3]
  Klebsiella pneumoniae expressing VIM-1 (IHMA599644) MITC95: 1.781 µM
[4]
  Serratia marcescens expressing IMP-1 (CL5741) MITC95: 0.8906 µM
[5]
  Escherichia coli expressing NDM-1 (CLB30016) MITC95: 0.25 µM

## NCCS(=O)(=O)c1ccc(-c2ccnc3[nH]ccc23)c(-c2nnn[nH]2)c1S(N)(=O)=O.O=C(O)C(F)(F)F [Example 142, 2-((4-(1H-pyrrolo[2,3-b]pyridin-4-yl)-2-sulfamoyl-3-(1H-tetrazol-5-yl)phenyl)sulfonyl)ethanaminium 2,2,2-trifluoroacetate]
IMP-1
  IC50: 0.517 nM
NDM-1
  IC50: 0.518 nM
[1]
  P. aeruginosa expressing IMP-1, efflux+ (MB9798) MITC95: 3.125 µM
  Efflux ratio: 4.00
VIM-1
  IC50: 0.153 nM
[2]
  P. aeruginosa expressing IMP-1, efflux− (MB9799) MITC95: 0.7813 µM
[3]
  Klebsiella pneumoniae expressing VIM-1 (IHMA599644) MITC95: 3.125 µM
[4]
  Serratia marcescens expressing IMP-1 (CL5741) MITC95: 1.563 µM
[5]
  Escherichia coli expressing NDM-1 (CLB30016) MITC95: 1.563 µM

## NCCS(=O)(=O)c1ccc(-c2cncc(CO)c2)c(-c2nnn[nH]2)c1S(N)(=O)=O.O=C(O)C(F)(F)F [Example 143, 2-((4-(5-(hydroxymethyl)pyridin-3-yl)-2-sulfamoyl-3-(1H-tetrazol-5-yl)phenyl)sulfonyl)ethanaminium 2,2,2-trifluoroacetate]
IMP-1
  IC50: 8.83 nM
NDM-1
  IC50: 11.2 nM
[1]
  P. aeruginosa expressing IMP-1, efflux+ (MB9798) MITC95: 12.5 µM
  Efflux ratio: 8.00
VIM-1
  IC50: 2.02 nM
[2]
  P. aeruginosa expressing IMP-1, efflux− (MB9799) MITC95: 1.563 µM
[3]
  Klebsiella pneumoniae expressing VIM-1 (IHMA599644) MITC95: 3.125 µM
[4]
  Serratia marcescens expressing IMP-1 (CL5741) MITC95: 3.125 µM
[5]
  Escherichia coli expressing NDM-1 (CLB30016) MITC95: 1.563 µM

## N#Cc1ccc(-c2ccc(S(=O)(=O)CCN)c(S(N)(=O)=O)c2-c2nnn[nH]2)cn1.O=C(O)C(F)(F)F [Example 144, 2-((4-(6-cyanopyridin-3-yl)-2-sulfamoyl-3-(1H-tetrazol-5-yl)phenyl)sulfonyl)ethanaminium 2,2,2-trifluoroacetate]
IMP-1
  IC50: 5.59 nM
NDM-1
  IC50: 7.21 nM
[1]
  P. aeruginosa expressing IMP-1, efflux+ (MB9798) MITC95: 50 µM
  Efflux ratio: 31.99
VIM-1
  IC50: 3.04 nM
[2]
  P. aeruginosa expressing IMP-1, efflux− (MB9799) MITC95: 1.563 µM
[3]
  Klebsiella pneumoniae expressing VIM-1 (IHMA599644) MITC95: 3.125 µM
[4]
  Serratia marcescens expressing IMP-1 (CL5741) MITC95: 3.125 µM
[5]
  Escherichia coli expressing NDM-1 (CLB30016) MITC95: 0.7813 µM

## NCCS(=O)(=O)c1ccc(-c2ccc(CO)nc2)c(-c2nnn[nH]2)c1S(N)(=O)=O.O=C(O)C(F)(F)F [Example 145, 2-((4-(6-(hydroxymethyl)pyridin-3-yl)-2-sulfamoyl-3-(1H-tetrazol-5-yl)phenyl)sulfonyl)ethanaminium 2,2,2-trifluoroacetate]
IMP-1
  IC50: 4.84 nM
NDM-1
  IC50: 4.31 nM
[1]
  P. aeruginosa expressing IMP-1, efflux+ (MB9798) MITC95: 12.5 µM
  Efflux ratio: 8.00
VIM-1
  IC50: 1.25 nM
[2]
  P. aeruginosa expressing IMP-1, efflux− (MB9799) MITC95: 1.563 µM
[3]
  Klebsiella pneumoniae expressing VIM-1 (IHMA599644) MITC95: 6.25 µM
[4]
  Serratia marcescens expressing IMP-1 (CL5741) MITC95: 3.125 µM
[5]
  Escherichia coli expressing NDM-1 (CLB30016) MITC95: 1.563 µM

## NCCS(=O)(=O)c1ccc(-c2ccc3nncn3c2)c(-c2nnn[nH]2)c1S(N)(=O)=O.O=C(O)C(F)(F)F [Example 146, 2-((4-([1,2,4]triazolo[4,3-a]pyridin-6-yl)-2-sulfamoyl-3-(1H-tetrazol-5-yl)phenyl)sulfonyl)ethanaminium 2,2,2-trifluoroacetate]
IMP-1
  IC50: 44.4 nM
NDM-1
  IC50: 20.6 nM
[1]
  P. aeruginosa expressing IMP-1, efflux+ (MB9798) MITC95: 100 µM
  Efflux ratio: 63.98
VIM-1
  IC50: 1.32 nM
[2]
  P. aeruginosa expressing IMP-1, efflux− (MB9799) MITC95: 1.563 µM
[3]
  Klebsiella pneumoniae expressing VIM-1 (IHMA599644) MITC95: 6.25 µM
[4]
  Serratia marcescens expressing IMP-1 (CL5741) MITC95: 3.125 µM
[5]
  Escherichia coli expressing NDM-1 (CLB30016) MITC95: 0.7813 µM

## NCCS(=O)(=O)c1ccc(-c2cccc(N3CCCC3=O)n2)c(-c2nnn[nH]2)c1S(N)(=O)=O.O=C(O)C(F)(F)F [Example 147, 2-((4-(6-(2-oxopyrrolidin-1-yl)pyridin-2-yl)-2-sulfamoyl-3-(1H-tetrazol-5-yl)phenyl)sulfonyl)ethanaminium 2,2,2-trifluoroacetate]
IMP-1
  IC50: 4.1 nM
NDM-1
  IC50: 3.12 nM
[1]
  P. aeruginosa expressing IMP-1, efflux+ (MB9798) MITC95: 100 µM
  Efflux ratio: 63.98
VIM-1
  IC50: 0.519 nM
[2]
  P. aeruginosa expressing IMP-1, efflux− (MB9799) MITC95: 1.563 µM
[3]
  Klebsiella pneumoniae expressing VIM-1 (IHMA599644) MITC95: 6.25 µM
[4]
  Serratia marcescens expressing IMP-1 (CL5741) MITC95: 6.25 µM
[5]
  Escherichia coli expressing NDM-1 (CLB30016) MITC95: 6.25 µM

## NCCS(=O)(=O)c1ccc(-c2cncc3ccccc23)c(-c2nnn[nH]2)c1S(N)(=O)=O.O=C(O)C(F)(F)F [Example 148, 2-((4-(isoquinolin-4-yl)-2-sulfamoyl-3-(1H-tetrazol-5-yl)phenyl)sulfonyl)ethanaminium 2,2,2-trifluoroacetate]
IMP-1
  IC50: 0.983 nM
NDM-1
  IC50: 0.608 nM
[1]
  P. aeruginosa expressing IMP-1, efflux+ (MB9798) MITC95: 3.125 µM
  Efflux ratio: 2.00
VIM-1
  IC50: 0.434 nM
[2]
  P. aeruginosa expressing IMP-1, efflux− (MB9799) MITC95: 1.563 µM
[3]
  Klebsiella pneumoniae expressing VIM-1 (IHMA599644) MITC95: 3.125 µM
[4]
  Serratia marcescens expressing IMP-1 (CL5741) MITC95: 3.125 µM
[5]
  Escherichia coli expressing NDM-1 (CLB30016) MITC95: 3.125 µM

## NCCS(=O)(=O)c1ccc(-c2cnc3[nH]ccc3c2)c(-c2nnn[nH]2)c1S(N)(=O)=O.O=C(O)C(F)(F)F [Example 149, 2-((4-(1H-pyrrolo[2,3-b]pyridin-5-yl)-2-sulfamoyl-3-(1H-tetrazol-5-yl)phenyl)sulfonyl)ethanaminium 2,2,2-trifluoroacetate]
IMP-1
  IC50: 0.856 nM
NDM-1
  IC50: 0.534 nM
[1]
  P. aeruginosa expressing IMP-1, efflux+ (MB9798) MITC95: 6.25 µM
  Efflux ratio: 8.00
VIM-1
  IC50: 0.185 nM
[2]
  P. aeruginosa expressing IMP-1, efflux− (MB9799) MITC95: 0.7813 µM
[3]
  Klebsiella pneumoniae expressing VIM-1 (IHMA599644) MITC95: 3.125 µM
[4]
  Serratia marcescens expressing IMP-1 (CL5741) MITC95: 3.125 µM
[5]
  Escherichia coli expressing NDM-1 (CLB30016) MITC95: 1.563 µM

Source: patent US10227331B2 (priority 2015, dated 2019)
